Results: patent publication US6989390B2, “Amonafide salts” (priority 2002, dated 2006)
Where a name gives a salt, the structure may show the parent alone.

Legend:
[1] = Minimum amount of water/ethanol (1.5/4 v/v) required to dissolve the crude salt at boil (recrystallization); type: physicochemical; conditions: minimum water/ethanol (1.5/4 v/v) to dissolve crude product at boil; salt made by the method in column 2
From the text: For comparative purposes, between and among organic salts prepared in this manner and for the purposes of subsequent Example 3, Table 3, crude reaction products were recrystalized from water/ethanol (1.5/4 v/v per gram of salt) using the minimum amount of solvent to effect dissolution at boil.
In the case of succinic acid, the organic acid was dispensed as a half-equivalent in order to generate mitonafide hemisuccinate. […] Crude product that was isolated from the hydrogenation reaction mixture was analyzed for purity by high pressure liquid chromatography (HPLC) according to the conditions described in Table 1 above. The crude product was recrystallized from water/ethanol (1.5/4 v/v) using the minimum amount of solvent required to dissolve the crude product at boil, which is shown in the last column of Table 3 for each salt. The recrystallized product was then analyzed for purity by HPLC.
The purities of the crude salts were assessed by HPLC according to the conditions described in Table 1 above. The crude salts were then recrystallized from the minimum amount of water/ethanol (1.5/4 v/v) using the minimum amount of solvent required to dissolve the crude product at boil, which is shown in the last column of Table 3 for each salt. The resulting purified salts were again assessed for purity.
The hydrochloride and methanesulfonic acid salts of amonafide were prepared according to U.S. Pat. No. 5,420,137. Exemplary procedures are as follows: 3 g of crude amonafide free base, obtained as described in the previous two paragraphs, above, were dissolved under reflux in 60 ml of virtually anhydrous ethanol. Subsequently 1 ml of 35% (1 equivalent, estimated) strength hydrochloric acid was added dropwise while shaking vigorously. After cooling, the resulting crystals were filtered off and washed with 10 ml of anhydrous ethanol. The methanesulfonic acid salt was obtained using the same procedure, but replacing hydrochloric acid with 0.8 ml of methanesulfonic acid. The purity was assessed by HPLC using the conditions described in Table 1. The isolated products were then recrystallized from water/ethanol (1.5/4 v/v) using the minimum amounts of solvent required to dissolve the crude product at boil, which are shown for each salt in Table 3. The resulting purified salts were again assessed for purity.
The hydrochloride salt of amonafide was obtained by the method of Zee-Chang et al., U.S. Pat. No. 4,614,820. Exemplary conditions are as follows: a mixture of the hydrochloride salt of N-(dimethylaminoethyl)-3-nitro-1,8-naphthalimide and 10% palladium-on-charcoal in water was hydrogenated at room temperature under 40 lbs/in^2 of hydrogen for one hour. […] To the mixture was added 3 ml of concentrated hydrochloric acid. It was then filtered and the filtrate was evaporated to dryness under reduced pressure. The residue was triturated with 30 ml of absolute ethanol and filtered. The resulting solid was then washed with ether and dried. The purity was assessed by HPLC using the conditions described in Table 1. The crude product was then recrystallized from water/ethanol (1.5/4 v/v) using the minimum amount of solvent (40 mL/g) required to dissolve the crude product at boil. The resulting purified salts were again assessed for purity.

[2] = Solubility assessment of amonafide salts (50, 100, 200 mg in 1 ml USP water or isotonic saline); type: physicochemical
Procedure: A number of organic acid amonafide salts of the present invention were tested for their solubility in aqueous medium and compared with the solubility of the corresponding hydrochloride and methansolufonic acid salts. […] Solutions were allowed to equilibrate for 1 hour, their dissolution status noted, and then refrigerated for an additional hour (at 2° C.). Thereafter, the samples were returned to room temperature and examined for precipitate formation and allowed to equilibrate for another hour until a final inspection for dissolution status.

[3] = 50 mg salt in 1 ml 0.9% sodium chloride (saline), 0 hours
[4] = 50 mg salt in 1 ml 0.9% sodium chloride (saline), 1 hours
[5] = 50 mg salt in 1 ml distilled water, 0 hours
[6] = 50 mg salt in 1 ml distilled water, 1 hours
[7] = 100 mg salt in 1 ml 0.9% sodium chloride (saline), 0 hours
[8] = 100 mg salt in 1 ml 0.9% sodium chloride (saline), 1 hours
[9] = 100 mg salt in 1 ml distilled water, 0 hours
[10] = 100 mg salt in 1 ml distilled water, 1 hours

CN(C)CCN1C(=O)c2cccc3cc(N)cc(c23)C1=O.O=C(O)CCC(=O)C(=O)O [Amonafide 2-oxoglutarate]
Solvent [1]: 30 mL/g

CN(C)CCN1C(=O)c2cccc3cc(N)cc(c23)C1=O.O=C(O)CCCCC(=O)O [Amonafide Adipate]
Solvent [1]: 25 mL/g

CN(C)CCN1C(=O)c2cccc3cc(N)cc(c23)C1=O.O=C(O)CC(O)(CC(=O)O)C(=O)O [Amonafide Citrate]
Solvent [1]: 25 mL/g

CN(C)CCN1C(=O)c2cccc3cc(N)cc(c23)C1=O [Amonafide HCl, Amonafide Monohydrochloride, reference compound]
solubility in the test panel of Tables 3 and 4 ([2]; monohydrochloride prepared by salt exchange, 99.2% pure): low solubility | Solvent [1]: 40 mL/g

CN(C)CCN1C(=O)c2cccc3cc(N)cc(c23)C1=O.O=C(O)C(O)C(O)C(=O)O [Amonafide L-tartrate]
Solvent [1]: 20 mL/g

CN(C)CCN1C(=O)c2cccc3cc(N)cc(c23)C1=O.O=C(O)CO [Amonafide glycolate]
Solvent [1]: 12.5 mL/g

CN(C)CCN1C(=O)c2cccc3cc(N)cc(c23)C1=O.O=C(O)CC(=O)O [Amonafide malonate, amonafide malonate]
Solvent [1]: 20 mL/g

CN(C)CCN1C(=O)c2cccc3cc(N)cc(c23)C1=O.O=C(O)c1ccccc1O [Amonafide salicylate]
Solvent [1]: 35 mL/g

CN(C)CCN1C(=O)c2cccc3cc(N)cc(c23)C1=O.CS(=O)(=O)O [Amonafine methanesulfonate, reference compound]
Solvent [1]: 25 mL/g

Amonafide Aspartate
Solvent [1]: 30 mL/g

Amonafide pyruvate
Dissolution Status [2, 3]: Soluble | Dissolution Status [2, 4]: Soluble | Dissolution Status [2, 5]: Soluble | Dissolution Status [2, 6]: Soluble | Dissolution Status [2, 7]: Soluble | Dissolution Status [2, 8]: Soluble | Dissolution Status [2, 9]: Soluble | Dissolution Status [2, 10]: Soluble | Dissolution Status ([2]; 200 mg salt in 1 ml 0.9% sodium chloride (saline), 0 hours): Partially Soluble | Dissolution Status ([2]; 200 mg salt in 1 ml 0.9% sodium chloride (saline), 1 hours): Partially Soluble | Dissolution Status ([2]; 200 mg salt in 1 ml distilled water, 0 hours): Soluble | Dissolution Status ([2]; 200 mg salt in 1 ml distilled water, 1 hours): Soluble | solubility in distilled water and in saline at high concentration compared with the hydrochloride salt forms / organic salts ([2]; text summary of Table 4): more soluble | Solvent [1]: 20 mL/g

Amonafide succinate
Dissolution Status [2, 3]: Insoluble | Dissolution Status [2, 4]: Insoluble | Dissolution Status [2, 5]: Soluble | Dissolution Status [2, 6]: Soluble | Dissolution Status [2, 7]: Insoluble | Dissolution Status [2, 8]: Insoluble | Dissolution Status [2, 9]: Insoluble | Dissolution Status [2, 10]: Insoluble | Solvent [1]: 20 mL/g

amonafide fumarate
Dissolution Status [2, 3]: Insoluble | Dissolution Status [2, 4]: Insoluble | Dissolution Status [2, 5]: Insoluble | Dissolution Status [2, 6]: Insoluble | Solvent [1]: 25 mL/g

amonafide hemisuccinate [Amonafide hemi-succinate]
Solvent [1]: 15 mL/g

amonafide maleate
Dissolution Status [2, 3]: Insoluble | Dissolution Status [2, 4]: Insoluble | Dissolution Status [2, 5]: Insoluble | Dissolution Status [2, 6]: Insoluble | Solvent [1]: 20 mL/g
